In brackets after ≈: the same amount, converted by molar mass.
How the values were obtained:
Assay type in all cases: cell-based
[1] = tested on: Streptococcus pyogenes 308A; test: MIC against standard strains (agar dilution); conditions: standard strain Streptococcus pyogenes 308A, 37° C., 18 to 20 hours, read-out: Minimum Inhibitory Concentration (MIC)
[2] = tested on: Streptococcus pyogenes 77A; test: MIC against standard strains (agar dilution); conditions: standard strain Streptococcus pyogenes 77A, 37° C., 18 to 20 hours, read-out: Minimum Inhibitory Concentration (MIC)
[3] = tested on: Streptococcus faecium MD 8b; test: MIC against standard strains (agar dilution); conditions: Enterococcus faecium, MD8B, standard strain Streptococcus faecium MD 8b, 37° C., 18 to 20 hours, read-out: Minimum Inhibitory Concentration (MIC)
[4] = tested on: Staphylococcus aureus 503; test: MIC against standard strains (agar dilution); conditions: standard strain Staphylococcus aureus 503, 37° C., 18 to 20 hours, read-out: Minimum Inhibitory Concentration (MIC)
Escherichia coli 078 = test: MIC against standard strains (agar dilution); conditions: standard strain Escherichia coli 078, 37° C., 18 to 20 hours, read-out: Minimum Inhibitory Concentration (MIC)
Escherichia coli DC 0 = test: MIC against standard strains (agar dilution); conditions: DC0, standard strain Escherichia coli DC 0, 37° C., 18 to 20 hours, read-out: Minimum Inhibitory Concentration (MIC)
Escherichia coli TEM = test: MIC against standard strains (agar dilution); conditions: standard strain Escherichia coli TEM, 37° C., 18 to 20 hours, read-out: Minimum Inhibitory Concentration (MIC)
[5] = tested on: Pseudomonas aeruginosa 9027; test: MIC against standard strains (agar dilution); conditions: standard strain Pseudomonas aeruginosa 9027, 37° C., 18 to 20 hours, read-out: Minimum Inhibitory Concentration (MIC)
[6] = tested on: Pseudomonas aeruginosa 1592E; test: MIC against standard strains (agar dilution); conditions: standard strain Pseudomonas aeruginosa 1592E, 37° C., 18 to 20 hours, read-out: Minimum Inhibitory Concentration (MIC)
[7] = tested on: Pseudomonas aeruginosa 1771M; test: MIC against standard strains (agar dilution); conditions: read-out: Minimum Inhibitory Concentration (MIC)
Salmonella typhimurium = test: MIC against standard strains (agar dilution); conditions: Salmonella enterica, standard strain Salmonella typhimurium, 37° C., 18 to 20 hours, read-out: Minimum Inhibitory Concentration (MIC)
Klebsiella cxytoca 1082E = test: MIC against standard strains (agar dilution); conditions: standard strain Klebsiella cxytoca 1082E, 37° C., 18 to 20 hours, read-out: Minimum Inhibitory Concentration (MIC)
Enterobacter cloacae P99 = test: MIC against standard strains (agar dilution); conditions: standard strain Enterobacter cloacae P99, 37° C., 18 to 20 hours, read-out: Minimum Inhibitory Concentration (MIC)
[8] = tested on: Methicillin-sensitive Staphylococcus aureus; test: MIC against clinically isolated aerobic Gram-positive strains; conditions: 33 strains
Staphylococcus coagulase = test: as above
Streptococcus pyogenes = test: as above; conditions: 15 strains
Streptococcus agalactiae = test: as above; conditions: 15 strains
Streptococcus pneumoniae = test: as above; conditions: 22 strains
Enterococcus faecalis = test: as above; conditions: 30 strains
Enterococcus faecium = test: as above; conditions: Enterococcus faecium
Moraxella catarrhalis = test: MIC against clinically isolated aerobic Gram-negative strains; conditions: 24 strains
Escherichia coli = test: as above; conditions: 30 strains
Citrobacter freundii = test: as above; conditions: 14 strains
Klebsiella pneumoniae = test: as above; conditions: 30 strains
Enterobacter cloacae = test: as above; conditions: 29 strains
Serratia marcescens = test: as above; conditions: 14 strains
Proteus mirabilis = test: as above; conditions: 15 strains
Morganella morganii = test: as above; conditions: 15 strains
Pseudomonas aeruginosa = test: as above; conditions: 60 strains
Bacteroides fragilis = test: MIC against clinically isolated anaerobic Gram-negative strains; conditions: 34 strains
Bacteroides spp. = test: as above; conditions: 11 strains

C[C@@H](O)[C@H]1C(=O)N2C(C(=O)O)=C(S[C@@H]3CN[C@H](C(=O)N(C)C)C3)[C@H](C)[C@H]12 [MPM, meropenem]
MIC [1]: 7 ng/mL (≈ 0.0183 µM) | MIC [2]: 7 ng/mL (≈ 0.0183 µM) | MIC [3]: 12.5 µg/mL (≈ 32.6 µM) | MIC [4]: 0.098 µg/mL (≈ 0.256 µM) | MIC (Escherichia coli 078): 0.025 µg/mL (≈ 0.0652 µM) | MIC (Escherichia coli DC 0): 0.025 µg/mL (≈ 0.0652 µM) | MIC (Escherichia coli TEM): 0.025 µg/mL (≈ 0.0652 µM) | MIC [5]: 0.195 µg/mL (≈ 0.509 µM) | MIC [6]: 0.098 µg/mL (≈ 0.256 µM) | MIC [7]: 0.098 µg/mL (≈ 0.256 µM) | MIC (Salmonella typhimurium): 0.049 µg/mL (≈ 0.128 µM) | MIC (Klebsiella cxytoca 1082E): 0.049 µg/mL (≈ 0.128 µM) | MIC (Enterobacter cloacae P99): 0.049 µg/mL (≈ 0.128 µM) | MIC50 [8]: 0.12 µg/mL (≈ 0.313 µM) | MIC90 [8]: 0.12 µg/mL (≈ 0.313 µM) | MIC Range [8]: 0.06 to 0.25 µg/mL | MIC50 (Staphylococcus coagulase; Staphylococcus): 0.06 µg/mL (≈ 0.156 µM) | MIC90 (Staphylococcus coagulase; Staphylococcus): 0.12 µg/mL (≈ 0.313 µM) | MIC Range (Staphylococcus coagulase; clinically isolated Staphylococcus coagulase, 22 strains): 0.03 to 0.5 µg/mL | MIC50 (Streptococcus pyogenes): < 8 ng/mL | MIC90 (Streptococcus pyogenes): < 8 ng/mL | MIC Range (Streptococcus pyogenes): <8 ng/mL | MIC50 (Streptococcus agalactiae): 0.03 µg/mL (≈ 0.0782 µM) | MIC90 (Streptococcus agalactiae): 0.03 µg/mL (≈ 0.0782 µM) | MIC Range (Streptococcus agalactiae): 0.03 µg/mL (≈ 0.0782 µM) | MIC50 (Streptococcus pneumoniae): 0.5 µg/mL (≈ 1.3 µM) | MIC90 (Streptococcus pneumoniae): 0.5 µg/mL (≈ 1.3 µM) | MIC Range (Streptococcus pneumoniae): 8 to 500 ng/mL | MIC50 (Enterococcus faecalis): 4 µg/mL (≈ 10.4 µM) | MIC90 (Enterococcus faecalis): 16 µg/mL (≈ 41.7 µM) | MIC Range (Enterococcus faecalis): 2 to 16 µg/mL | MIC50 (Enterococcus faecium): 128 µg/mL (≈ 334 µM) | MIC90 (Enterococcus faecium): 128 µg/mL (≈ 334 µM) | MIC50 (Moraxella catarrhalis): 8 ng/mL (≈ 0.0209 µM) | MIC90 (Moraxella catarrhalis): 8 ng/mL (≈ 0.0209 µM) | MIC Range (Moraxella catarrhalis): 8 to 30 ng/mL | MIC50 (Escherichia coli): 0.015 µg/mL (≈ 0.0391 µM) | MIC90 (Escherichia coli): 0.03 µg/mL (≈ 0.0782 µM) | MIC Range (Escherichia coli): 8 to 500 ng/mL | MIC50 (Citrobacter freundii): 0.015 µg/mL (≈ 0.0391 µM) | MIC90 (Citrobacter freundii): 0.03 µg/mL (≈ 0.0782 µM) | MIC Range (Citrobacter freundii): 0.015 to 0.06 µg/mL | MIC50 (Klebsiella pneumoniae): 0.03 µg/mL (≈ 0.0782 µM) | MIC90 (Klebsiella pneumoniae): 0.06 µg/mL (≈ 0.156 µM) | MIC Range (Klebsiella pneumoniae): 0.015 to 0.06 µg/mL | MIC50 (Enterobacter cloacae): 0.03 µg/mL (≈ 0.0782 µM) | MIC90 (Enterobacter cloacae): 0.25 µg/mL (≈ 0.652 µM) | MIC Range (Enterobacter cloacae): 0.015 to 0.5 µg/mL | MIC50 (Serratia marcescens): 0.03 µg/mL (≈ 0.0782 µM) | MIC90 (Serratia marcescens): 8 µg/mL (≈ 20.9 µM) | MIC Range (Serratia marcescens): 0.03 to 8 µg/mL | MIC50 (Proteus mirabilis): 0.06 µg/mL (≈ 0.156 µM) | MIC90 (Proteus mirabilis): 0.06 µg/mL (≈ 0.156 µM) | MIC Range (Proteus mirabilis): 0.015 to 0.06 µg/mL | MIC50 (Morganella morganii): 0.06 µg/mL (≈ 0.156 µM) | MIC90 (Morganella morganii): 0.12 µg/mL (≈ 0.313 µM) | MIC Range (Morganella morganii): 0.03 to 0.12 µg/mL | MIC50 (Pseudomonas aeruginosa): 2 µg/mL (≈ 5.22 µM) | MIC90 (Pseudomonas aeruginosa): 16 µg/mL (≈ 41.7 µM) | MIC50 (Bacteroides fragilis): 0.12 µg/mL (≈ 0.313 µM) | MIC90 (Bacteroides fragilis): 0.25 µg/mL (≈ 0.652 µM) | MIC Range (Bacteroides fragilis): 0.12 to 4 µg/mL | MIC50 (Bacteroides spp.): 0.5 µg/mL (≈ 1.3 µM) | MIC90 (Bacteroides spp.): 0.5 µg/mL (≈ 1.3 µM) | MIC Range (Bacteroides spp.): 0.12 to 0.5 µg/mL

— patent US20080039438A1, “1B-Methylcarbapenem Derivative and Process for the Preparation Thereof” (Korea Institute of Science and Technology, priority 2004, published 2008)
